Counter-ions that a name gives are not always drawn.
Key:
Type in all cases: in vivo
[1] = test system: hair-deficient mice called "nude" (nu/nu); assay: Hair growth in nude mice, oral drug daily without resting on weekends (Example 2); conditions: for Score of Photos 1+ (Number of animals with at least 1 of 5 photos showing positive hair growth) / Score of Photos 2+ (Number of animals with at least 2 of 5 photos showing positive hair growth): Example 2, daily, eleven week old mice; for inducing hair growth, compared with minoxidil: summary of Table I in words
From the text: (§1) The present invention is illustrated by the Examples, below. Examples 1-3 illustrate the effect of minoxidil sulfate (a compound of the present invention) and minoxidil (the corresponding N-oxide) in genetically identical hair-deficient mice called "nude" (nu/nu) (see Flanagen, Genet. Res. 8:295-309 (1966)). […] All mice in the species mus grow hair in a definite, 20 day cycle, going from head to tail (see Barom, Acta Path. Micro. Scan. 34: 521-541 (1954)). "Nude" mice have the same pattern (see Eton, Transplantation 22: 217-222 (1976)). Hair fails to appear in the nude mouce since it never emerges due to the fact that the hair shaft is incompletely formed, poorly keratinized, or both. The nacent hair shafts fragment within the follicle and thus never emerge or break near the skin surface. The hair produced in the nude mice treated with the compounds described below is more normal and mechanically competent to emerge and persit. Eventually, however, even the hair produced in the drug treated animals falls out due to the genetic defect of these animals. Nonetheless, significant differences in hair growth can be observed in the drug treated animals as compared to the control animals during the twenty day cycle.
(§2) In the Examples, five photographs were taken of the animals every six days over a four week period.
Eleven week old mice from the same group fo animals as used in Example 1 were treated by oral administration of 0.25 ml of either minoxidil or minoxidil sulfate in water daily without resting on weekends. Weights were assumed to be an average of 25 g per animal for dosing purposes.

[2] = test system: stumptail Macque monkeys; assay: Hair growth rate on the scalp of balding monkeys, topical solution (Example 4); conditions: for Mean wt. (clipped hair, 2.54 cm square area of treated scalp): topical daily, 250 microliters of 750 mg in 50 ml acetone:N-methylpyrrolidone 94:6
Method: Topical minoxidil sulfate solution was applied to a group of 6 stumptail Macque monkeys daily, 7 days/ week. The topical minoxidil sulfate solution was prepared by dissolving 750 mg of minoxidil sulfate in 50 ml of a 94:6 volume:volume solution of acetone: N-methylpyrrolidone. A second group of 6 animals served as controls and received vehicle only. the volume per application was 250 microliters applied to the frontal scalp with an art brush. Hair growth rate within a 2.54 cm (1 inch) square area of treated scalp was assessed by quantitatively clipping the hair at successive intervals of 42 days, 21 days and 21 days and weighing the residue.

[3] = test system: Balb/c nu/nu male mice; assay: Hair growth in nude mice, daily oral or topical drug (Example 3); conditions: six week old mice
From the text: as §1, §2
Six week old Balb/c nu/nu male mice were given daily oral drug (without resting on weekends) in 0.25 ml water. Topical minoxidil sulfate was applied in 0.25 ml of a propylene glycol, ethanol, and watervehicle.

[4] = 20 mg/kg topical in propylene glycol, ethanol and water vehicle
[5] = 40 mg/kg topical in propylene glycol, ethanol and water vehicle

Nc1cc(N2CCCCC2)nc(N)[n+]1OS(=O)(=O)[O-] [Minoxidil Sulfate, 2,6-Diamino-4-(1-piperidinyl)-1-(sulfoxy)-pyrimidinium hydroxide, inner salt]
Score of Photos 1+ (Number of animals with at least 1 of 5 photos showing positive hair growth) ([1]; 20 mg/kg oral): 4/5 | Score of Photos 2+ (Number of animals with at least 2 of 5 photos showing positive hair growth) ([1]; 20 mg/kg oral): 3/5 | Score of Photos 1+ (Number of animals with at least 1 of 5 photos showing positive hair growth) ([1]; 40 mg/kg oral): 3/5 | Score of Photos 2+ (Number of animals with at least 2 of 5 photos showing positive hair growth) ([1]; 40 mg/kg oral): 1/5 | inducing hair growth, compared with minoxidil ([1]; at 20 mg/kg): significantly better than minoxidil | inducing hair growth, compared with minoxidil ([1]; at 40 mg/kg): equipotent to or better than minoxidil | Mean wt. (clipped hair, 2.54 cm square area of treated scalp) ([2]; Collection 1 (interval of 42 days)): 76 ±20 uG/day | Mean wt. (clipped hair, 2.54 cm square area of treated scalp) ([2]; Collection 2 (next interval of 21 days)): 313 ±67 uG/day | Mean wt. (clipped hair, 2.54 cm square area of treated scalp) ([2]; Collection 3 (last interval of 21 days)): 343 ±52 uG/day | hair growth following topical application to the scalp ([2]; balding monkeys, summary of Table II in words): stimulates hair growth | increase in hair growth versus vehicle ([2]; by the third collection, summary of Table II in words): statistically significant increase in hair growth | Score of Photos 1+ (Number of animals with at least 1 of 5 photos showing positive hair growth) ([3]; 5 mg/kg oral, daily): 2/5 | Score of Photos 2+ (Number of animals with at least 2 of 5 photos showing positive hair growth) ([3]; 5 mg/kg oral, daily): 1/5 | Score of Photos 1+ (Number of animals with at least 1 of 5 photos showing positive hair growth) ([3]; 10 mg/kg oral, daily): 1/5 | Score of Photos 2+ (Number of animals with at least 2 of 5 photos showing positive hair growth) ([3]; 10 mg/kg oral, daily): 1/5 | Score of Photos 1+ (Number of animals with at least 1 of 5 photos showing positive hair growth) ([3]; 20 mg/kg oral, daily): 2/5 | Score of Photos 2+ (Number of animals with at least 2 of 5 photos showing positive hair growth) ([3]; 20 mg/kg oral, daily): 1/5 | Score of Photos 1+ (Number of animals with at least 1 of 5 photos showing positive hair growth) [3, 4]: 2/5 | Score of Photos 2+ (Number of animals with at least 2 of 5 photos showing positive hair growth) [3, 4]: 0/5 | Score of Photos 1+ (Number of animals with at least 1 of 5 photos showing positive hair growth) ([3]; 40 mg/kg oral, daily): 3/5 | Score of Photos 2+ (Number of animals with at least 2 of 5 photos showing positive hair growth) ([3]; 40 mg/kg oral, daily): 0/5 | Score of Photos 1+ (Number of animals with at least 1 of 5 photos showing positive hair growth) [3, 5]: 2/5 | Score of Photos 2+ (Number of animals with at least 2 of 5 photos showing positive hair growth) [3, 5]: 1/5

Reference: patent EP0210227B1, “PYRIMIDINE SULFATES FOR HAIR GROWTH” (THE UPJOHN COMPANY, priority 1985, dated 1986)
